Measured values: patent US20120245031A1, “Pesticidal Mixtures” (BASF SE, priority 2009, published 2012)

Columns and labels:
Type in all cases: in vivo
[1] = test system: wheat plants of the imidazolinone tolerant variety ‘BW755’; assay: Transpiration (water loss) of cut wheat plants as indicator for drought tolerance, fluxapyroxad / imazamox (Example 1); conditions: solo; for Mean water loss: 24 h at 25° C.; for Observed efficacy: decrease of water loss vs control, 24 h
Protocol: The transpiration of wheat plants treated or not treated with fluxapyroxad solo, imazamox solo, and mixtures thereof was assessed as an indicator for drought tolerance. 10 to 14 days old wheat plants were cut above the ground and placed into Eppendorf caps containing 2.2 ml of the test solution. The wheat plants were incubated for 24 h at 25° C. and 50% relative humidity in a growth chamber. The weight of the Eppendorf cap including the test solution but excluding the plant was assessed before and after incubation. The difference in weight is recorded as the loss of water through transpiration. This assay can be used to asses the drought tolerance of plants.
(§1) In the present example wheat plants of the imidazolinone tolerant variety ‘BW755’ were grown at 18° C. for 10 days in the greenhouse prior to the treatment and the incubation. 10 plants per treatment were treated and incubated as described. Fluxapyroxad and imazamox were dissolved in 0.5% DMSO. The 0.5% DMSO solution consisted of 0.5% DMSO dissolved in water. The tested concentrations are described in table 2. Control plants were treated with the blank 0.5% DMSO solution only.
The efficacy of the tested compounds and respective mixtures was calculated as % of water loss compared to the control: […]
(§2) a corresponds to water loss of plants after incubation in the treated plants in g and b corresponds to water loss of plants after incubation in the control in g.

[2] = test system: potted imidazolinone tolerant wheat, variety ‘BW755’; assay: Greenhouse pot trial, total shoot biomass (dry weight) of wheat, fluxapyroxad / imazamox (Example 2); conditions: solo; for Shoot dry weight: 7 days following the last treatment; for Observed efficacy: increase of biomass vs untreated control
Protocol: (§3) Wheat was grown in 2010 in the greenhouse at the agricultural center at Limburgerhof, Germany. The imidazolinone tolerant variety ‘BW755’ was planted in pots. The trial was setup with 8 replications with one pot 10 plants each per replication.
(§4) The active ingredients were used as formulations. The formulations were used in the product rates given below and in table 3. The products were applied in a total spray volume of 375 l/ha. Products were diluted in water. The spray solution was applied in a spray cabinet using a spray boom with flat fan nozzles.
Imazamox was applied once as Raptor™ (120 g active per liter soluble concentrate) when the wheat plants had the first leaf fully developed (BBCH 11). Fluxapyroxd was applied once as an experimental emulsion concentrate (62.5 g active ingredient per liter) at 2 to 3 leaves fully developed (BBCH 12/13). The application of the mixture was carried out as a sequence, wherein Raptor™ was applied when the first leave had developed while the fluxapyroxad formulation was applied when 2-3 leaves had developed.
(§5) Total shoot biomass was assessed (table 3) by harvesting all plants of a pot 7 days following the last treatment (expressed as g per pot). Afterwards, dry weight of total shoot biomass per pot was evaluated. After measuring fresh weight, the samples were dried in a drying cabinet at 65° C. for two days. The efficacy was calculated as % increase of biomass in the treatments compared to the untreated control:
(§6) a corresponds to the biomass of the treated plants in g/pot and b corresponds to the biomass of the untreated (control) plants in g/pot

[3] = test system: wheat plants of the imidazolinone tolerant variety ‘BW755’; assay: Transpiration (water loss) of cut wheat plants as indicator of drought tolerance, fluxapyroxad / imazethapyr (Example 3); conditions: for Mean water loss / Observed efficacy: solo; for Mean water loss: 24 h; for Observed efficacy: decrease of water loss vs control
Protocol: The transpiration as an indicatior of drought tolerance of wheat plants treated or not treated with fluxapyroxad solo, imazethapyr solo, and mixtures thereof was assessed. 10 to 14 days old wheat plants were cut above the ground and placed into Eppendorf caps containing 2.2 ml of the test solution. The wheat plants were incubated for 24 h at 25° C. and 50% relative humidity in a growth chamber. The weight of the Eppendorf cap including the test solution but excluding the leaves was assessed before and after incubation. The difference in weight was recorded as the loss of water through transpiration. This assay is generally used to asses the drought tolerance of plants.
as §1, with “imazethapyr” for “imazamox”, “are as” for “are”, “4.” for “2.”
The efficacy of the tested compounds and mixtures was calculated as % of water loss compared to the control: […]
as §2

[4] = test system: potted imidazolinone tolerant wheat, variety ‘BW755’; assay: Greenhouse pot trial, total shoot biomass (dry weight) of wheat, fluxapyroxad / imazethapyr (Example 4); conditions: solo; for Shoot dry weight: 7 days after the last treatment; for Observed efficacy: increase of biomass vs untreated control
Protocol: as §3
as §4, with “6.” for “3.”
Imazethapyr was applied once as PIVOT 100 SL™ (100 g active per liter soluble concentrate) when the wheat plants had the first leaf fully developed (BBCH 11). Fluxapyroxd was applied once as an experimental emulsion concentrate (62.5 g active ingredient per liter) when 2 to 3 leaves were fully developed (BBCH 12/13). The application of the mixture was applied as a sequence of PIVOT 100 SL™ at the stage when the first leave had developed and while the fluxapyroxad formulation was applied when 2-3 leaves had developed.
as §5, with “6)” for “3)”, “after” for “following”, “Dry” for “Afterwards, dry”
as §6

[5] = 10 ppm, first experiment (table 4)
[6] = 10 ppm, repeated experiment (table 5)
[7] = 50 ppm, first experiment (table 4)
[8] = 100 ppm, first experiment (table 4)
[9] = 100 ppm, repeated experiment (table 5)
[10] = 1 ppm, first experiment (table 4)
[11] = 500 ppm, first experiment (table 4)

Cn1cc(C(=O)Nc2ccccc2-c2cc(F)c(F)c(F)c2)c(C(F)F)n1 [Fluxapyroxad, N-(3′,4′,5′-trifluorobiphenyl-2-yl)-3-difluoromethyl-1-methyl-1H-pyrazole-4-carboxamide]
Mean water loss ([1]; 50 ppm): 0.794 g | Observed efficacy ([1]; 50 ppm): 17.68% | Observed efficacy ([1]; 50 ppm, listed as fluxapyroxad): about 18% | Shoot dry weight ([2]; 10.00 g/ha): 0.619 g/pot | Observed efficacy ([2]; 10.00 g/ha): 3.80% | Shoot dry weight ([2]; 50.00 g/ha): 0.604 g/pot | Observed efficacy ([2]; 50.00 g/ha): 1.41% | Shoot dry weight ([2]; 100.00 g/ha): 0.604 g/pot | Observed efficacy ([2]; 100.00 g/ha): 1.30% | Mean water loss [3, 5]: 0.853 g | Mean water loss [3, 6]: 1.266 g | Observed efficacy [3, 5]: 14.59% | Observed efficacy [3, 6]: 10.46% | Mean water loss [3, 7]: 0.728 g | Observed efficacy [3, 7]: 27.16% | Mean water loss [3, 8]: 0.647 g | Mean water loss [3, 9]: 0.628 g | Observed efficacy [3, 8]: 35.22% | Observed efficacy [3, 9]: 55.60% | Shoot dry weight ([4]; 10 g/ha): 0.638 g/pot | Observed efficacy ([4]; 10 g/ha): −4.75% | Shoot dry weight ([4]; 50 g/ha): 0.617 g/pot | Observed efficacy ([4]; 50 g/ha): −7.88% | Shoot dry weight ([4]; 100 g/ha): 0.649 g/pot | Observed efficacy ([4]; 100 g/ha): −3.16%

COCc1cnc(C2=NC(C)(C(C)C)C(=O)N2)c(C(=O)O)c1 (stereo not shown) [Imazamox, imazamox]
Mean water loss ([1]; 50 ppm): 0.907 g | Observed efficacy ([1]; 50 ppm): 5.92% | Mean water loss ([1]; 100 ppm): 0.855 g | Observed efficacy ([1]; 100 ppm): 11.32% | Mean water loss ([1]; 150 ppm): 1.001 g | Observed efficacy ([1]; 150 ppm): −3.88% | Shoot dry weight ([2]; 8.75 g/ha): 0.631 g/pot | Observed efficacy ([2]; 8.75 g/ha): 5.83% | Observed efficacy ([2]; 8.75 g/ha, listed as imazamox): about 6% | Shoot dry weight ([2]; 17.50 g/ha): 0.559 g/pot | Observed efficacy ([2]; 17.50 g/ha): −6.29% | reduction of dry biomass ([2]; 35 g imazamox per ha): about 14% | Shoot dry weight ([2]; 35.00 g/ha): 0.513 g/pot | Observed efficacy ([2]; 35.00 g/ha): −13.93%

CCc1cnc(C2=NC(C)(C(C)C)C(=O)N2)c(C(=O)O)c1 (stereo not shown) [Imazethapyr, imazethapyr]
Mean water loss [3, 10]: 1.249 g | Observed efficacy [3, 10]: −25.04% | Mean water loss [3, 6]: 1.435 g | Observed efficacy [3, 6]: −1.52% | Mean water loss [3, 11]: 0.878 g | Observed efficacy [3, 11]: 12.12% | effect on water loss, in words ([3]; alone at 10 ppm, second experiment, table 5): tended to be neutral | reduction of dry biomass ([4]; 17.5 g imazethapyr per ha): about 1% | Shoot dry weight ([4]; 17.5 g/ha): 0.665 g/pot | Observed efficacy ([4]; 17.5 g/ha): −0.72% | reduction of dry biomass ([4]; 35 g imazethapyr per ha): about 9% | Shoot dry weight ([4]; 35 g/ha): 0.609 g/pot | Observed efficacy ([4]; 35 g/ha): −9.07%
